The values below come from US20250387334A1, “Oxyanion azide-benzaldehyde acetal acid-degradable lipids” (The Regents of the University of California, priority 2023, published 2025).

Data set [1] in a line: Hydrolysis kinetics of compounds 1-3 and their reduced forms (plate reader, mass spectrum). To be noted: for half-life: buffer; for compound detected in the buffer by mass spectrum: 6 hours. In kind it is physicochemical. An excerpt:
Engineering PEG-lipids to rapidly hydrolyze in endosomes has the potential to generate LNPs that have high levels of PEGylation and also transfect cells efficiently^10, 19, 20. The PEG-lipid reduces LNP toxicity and enhances LNP diffusion through tissue. However, LNPs are currently made with 0.5-1.5 mole percent of the PEG-lipid because increasing PEGylation levels beyond these levels can have detrimental effects. For example, the PEG-lipid lowers endosomal disruption by preventing the mixing of the ionizable lipid with endosomal lipids^20, 21 and causes the formation of anti-PEG antibodies^22. LNPs made with acid-degradable PEG-lipids should transfect cells efficiently even at high levels of PEGylation because they will hydrolyze off the LNP after endocytosis and will be released from the LNP surface. In addition, the immunogenicity of PEG dramatically increases after conjugation to lipids, and acid-degradable PEG-lipids may also have lower immunogenicity than traditional PEG-lipids because they will rapidly generate free PEG after endocytosis^22, 23.

A short description of data set [2]: Acid-catalyzed hydrolysis kinetics of model azido-acetal 4 and its reduced form 5. The class given is physicochemical. An excerpt: RD-LNPs are based upon the rapid hydrolysis of the azido-acetal linker at pH 6.0. We synthesized the model azido-acetal 4 and measured its acid-catalyzed hydrolysis rate before and after reduction to investigate whether reductive activation accelerates the hydrolysis kinetics of an azido-acetal. […] The azido-acetal has the stability needed for performing multi-step organic reactions and should enable the development of new materials that are hypersensitive to acidic conditions. […] In addition, the reduced azido-acetal hydrolyzes with a t1/2<30 minutes at pH 6.0 and has the hydrolysis kinetics needed to degrade in endosomes before trafficking to lysosomes occurs4. The two-step hydrolysis mechanism of the azido-acetal overcomes the stability problems preventing the development of rapidly hydrolyzing lipids and provides a general strategy for developing lipids and materials that rapidly hydrolyze at endosomal pHs.

A short description of data set [3]: DTT reduction kinetics of compound 4. The class given is physicochemical.
The conditions of data set [4]: IL-22 protein; cited from earlier work.

With `COCCOCCOCCOCCOCCOCCOCCOCCOCCOCCOCCOCCOCCOCCOCCOCCOCCOCCOCCOCCOCCOCCOCCOCCOCCOCCOCCOCCOCCOCCOCCOCCOCCOCCOCCOCCOCCOCCOCCOCCOCCOCCOCCOCCOCCOC(=O)NCCOC(OCCNC(=O)O[C@H]1CC[C@@]2(C)C(=CC[C@H]3[C@@H]4CC[C@H]([C@H](C)CCCC(C)C)[C@@]4(C)CC[C@@H]32)C1)c1ccc(N=[N+]=[N-])cc1` (some centres unmarked) [Compound 1], the half-life in data set [1] (pH 4.0, read-out: t1/2 (minute) pH 4.0) was 54.8 ± 3.89 min; in data set [1] (pH 5.0, read-out: t1/2 (minute) pH 5.0), 192 ± 28.3 min; in data set [1] (pH 6.0, cell prints day, read-out: t1/2 pH 6.0), 4280 min; in data set [1] (pH 7.4, cell prints day, read-out: t1/2 pH 7.4 (converted)), 28500 min.
Consider `CC(C)CCC[C@@H](C)[C@H]1CC[C@H]2[C@@H]3CC=C4C[C@@H](OC(=O)NCCOC(OCC[N+](C)(C)C)c5ccc(N=[N+]=[N-])cc5)CC[C@]4(C)[C@H]3CC[C@]12C` (some centres unmarked) [Compound 3], for which the “compound detected in the buffer by mass spectrum” value in data set [1] (pH 4 and pH 5, 37° C.) was “nearly no compound 3 was detected”; in data set [1] (pH 6 and pH 7.4, 37° C.), “a large amount”.
Turning to `COC(=O)NCCOC(OCCNC(=O)OC)c1ccc(N=[N+]=[N-])cc1` [Compound 4], the half-life in data set [2] (buffer, pH 4) is 0.0567 ± 0.00133 h; in data set [2] (buffer, pH 5), 0.619 ± 0.0115 h; in data set [2] (buffer, pH 6), 8.57 ± 0.117 h; in data set [2] (pH 7.4) it was 507 h; in data set [3] (10 mM DTT solution (chemical reduction), read-out: DTT reduction t1/2 (minute) 10 mM), 26.4 ± 3.37 min; in data set [3] (25 mM DTT solution (chemical reduction), read-out: DTT reduction t1/2 (minute) 25 mM) it was 14.2 ± 0.5 min. The half-life turned out to be 11.9 ± 1.85 min in data set [3] (50 mM DTT solution (chemical reduction), read-out: DTT reduction t1/2 (minute) 50 mM) and 7.21 ± 0.11 min in data set [3] (100 mM DTT solution (chemical reduction), read-out: DTT reduction t1/2 (minute) 100 mM). The predicted hydrolysis half-life in data set [2] (pH 7.4) is recorded as 21 days. The “hydrolysis after 6.5 hours” value in data set [2] (pH 7.4, 6.5 hours) is given as “under 1%”.
With IL-22: soluble IL-22 protein, cytokine, the circulation half-life result in data set [4] was “under 2 hours”.
